Measured values from paper PMC5675618, “Identification and validation of FGFR2 peptide for detection of early Barrett's neoplasia” (Oncotarget, 2017).

Experiments:
[1] = system: QhTERT cells that express FGFR2b; assay: Confocal fluorescence microscopy, binding to QhTERT cells that express FGFR2b; type: cell-based, human
Text: (§1) All human esophageal specimens were obtained with written, informed patient consent per approval and guidelines of the University of Michigan Institutional Review Board (IRB). Human non-dysplastic Barrett's esophagus (BE) cells immortalized with hTert (QhTERT) were obtained from the American Type Culture Collection (ATCC) and cultured in keratinocyte-serum free medium containing bovine pituitary extract and human recombinant EGF (ThermoFisher #17005042). QhTERT cells with stable expression of FGFR2b or FGFR2c were provided (DGB). We cultured these cells with keratinocyte-serum free medium containing bovine pituitary extract and human recombinant EGF (ThermoFisher #17005042) and added 1 μg/mL of puromycin-dihydrochloride (Invitrogen #A11138-03). All cells were cultured at 37°C in 5% CO2, and were passaged using 0.25% EDTA containing trypsin (Mediatech Inc). A hemocytometer was used to determine cell number. Peptide synthesis reagents were obtained from either Anaspec or AAPPTEC with the highest grade available (>99% purity) and used without further purification. Solvents and other chemical reagents were obtained from Sigma-Aldrich, unless otherwise stated.
(§2) ~10^3 QhTERT/wt, QhTERT/FGFR2b, and QhTERT/FGFR2c cells were grown on cover glass to ~80% confluence. The cells were washed with PBS 1X and incubated with 1 μM of either peptide for 10 min at RT. The cells were then washed 3X in PBS, fixed with 4% paraformaldehyde (PFA) for 5 min, washed 1X with PBS, and then mounted on glass slides with ProLong Gold reagent containing DAPI (Invitrogen). Confocal fluorescence images were collected with Cy5.5 and DAPI filters (Leica Inverted SP5X 2-Photon FLIM confocal microscopes) using a 63X oil-immersion objective. Fluorescence intensities from 3 cells in each of 3 independent images were quantified using custom Matlab (Mathworks) software.

[2] = system: sections of human esophageal squamous cell cancer (SCC); assay: Confocal microscopy of staining of human esophageal squamous cell cancer (SCC) ex vivo
Text: We observed good co-localization of peptide and antibody binding on merged images, Supplementary Figure 5C. Representative histology (H&E) for SCC is shown, Supplementary Figure 5D. […] Representative histology (H&E) for normal stomach is shown, Supplementary Figure 5H.

[3] = system: QhTERT cells that express FGFR2c; assay: Confocal fluorescence microscopy, binding to QhTERT cells that express FGFR2c; type: cell-based, human
Text: as §1, §2

[4] = system: sections of human esophagus ex vivo; assay: Confocal microscopy of staining of human esophageal specimens ex vivo (SQ, BE, HGD, EAC)
Description: Formalin-fixed sections of human esophageal specimens were deparaffinized, and antigen retrieval was performed using standard methods. Briefly, the sections were incubated in xylene for 3 min 3X, washed with 100% ethanol for 2 min 2X, and washed with 95% ethanol for 2 min 2X. Rehydration was performed by washing in dH2O for 5 min 2X. Antigen unmasking was performed by boiling the slides in 10 mM sodium citrate buffer with 0.05% Tween at pH 6.0, and then maintaining at sub-boiling temperature for 15 min. The slides were cooled for 30 min, and the sections were washed in dH2O for 3 min 3X and in PBS for 5 min. Blocking was performed with DAKO protein blocking agent (X0909, DAKO) for 1 hour at RT. The peptides were incubated at a concentration of 1 μM for 10 min at RT. The sections were washed in PBS for 3 min 3X, and incubated with 1:1000 dilution of monoclonal anti-FGFR2 (Abcam, ab58201) overnight at 4°C.
The sections were then washed in PBS for 5 min 3X. A 1:500 dilution of AF488-labeled secondary antibody (goat anti-mouse) was added to each section and incubated for 30 min at RT. The secondary antibody solution was removed by washing with PBS for 5 min 3X. The sections were then mounted with ProLong Gold reagent containing DAPI (Invitrogen). The mean fluorescence intensities from 3 boxes (dimensions of 30×30 μm^2) located completely within the surface epithelium of each specimen were measured. […] Serial sections were processed for routine histology (H&E), and were reviewed by an expert gastrointestinal pathologist (HDA).

[5] = system: sections of human gastric cancer; assay: Confocal microscopy of staining of human gastric cancer ex vivo
Text: We observed good co-localization of peptide and antibody binding on merged images, Supplementary Figure 6C. Representative histology (H&E) for gastric cancer is shown, Supplementary Figure 6D. […] Representative histology (H&E) for normal stomach is shown, Supplementary Figure 6H.

[6] = system: QhTERT cells that express FGFR2c; assay: Apparent association time constant by flow cytometry; type: binding, human; settings: 5 μM, RT, 0 to 30 min
Description: We measured the apparent association time constant of the peptide to QhTERT/FGFR2c cells to assess binding onset. Cells were grown to ~80% confluence in 10 cm dishes, and detached with PBS-based cell dissociation buffer (Invitrogen). Cells (~10^5 were incubated with 5 μM SRR-Cy5.5 at RT for various time intervals ranging from 0 to 30 min. The cells were centrifuged, and washed with cold PBS. Flow cytometry analysis was performed as described above, and the median fluorescence intensity (y) were measured on flow cytometry at different time points (t) using Flowjo software. The rate constant k was calculated by fitting the data to a first order kinetics model, y(t) = Imax[1-exp^(-kt)], where Imax = maximum value using Prism 5.0 software (GraphPad Inc).

[7] = 1 μM peptide, 10 min at RT, confocal, 63X
[8] = compared with wild-type, log-transformed, ANOVA, 3 random cells on each of 3 slides

fluorescence intensity / binding, gastric cancer ([5]; gastric cancer sections ex vivo, n = 33 patients): strong fluorescence intensity
Sequence: SRRPASFRTARE [SRR^*-Cy5.5]
cell surface fluorescence signal / binding [1, 7]: strong signal
mean fluorescence intensity versus control SPS^*-Cy5.5 [1, 8]: significantly greater mean fluorescence intensity
mean fluorescence intensity, SCC versus normal, SRR*-Cy5.5 ([2]; P=5×10-21, paired two-sided t-test, 3 boxes of 30×30 μm2): significantly greater mean fluorescence intensity
fluorescence intensity / binding, esophageal SCC ([2]; SCC sections ex vivo, n = 35 patients): strong fluorescence intensity
staining, normal human esophagus ([2]; normal esophagus, comparison): minimal staining
cell surface fluorescence signal / binding [3, 7]: strong signal
mean fluorescence intensity versus control SPS^*-Cy5.5 [3, 8]: significantly greater mean fluorescence intensity
mean T/B ratio, HGD and EAC versus BE and SQ ([4]; 3 boxes of 30×30 μm^2, n = 28, 33, 22, 17 specimens of SQ, BE, HGD, EAC): significantly higher
mean fluorescence intensity, HGD and EAC versus BE ([4]; ANOVA, 4 means, log-transformed data, 3 boxes of 30×30 μm^2): significantly greater mean fluorescence intensity
fluorescence intensity / staining, Barrett's esophagus (BE) ([4]; BE, n = 33 specimens, peptide 1 μM, 10 min at RT, antibody 1:1000 overnight at 4°C): minimal fluorescence intensity
fluorescence intensity / staining, esophageal adenocarcinoma (EAC) ([4]; EAC, n = 17 specimens, peptide 1 μM, 10 min at RT, antibody 1:1000 overnight at 4°C): strong signal
fluorescence intensity / staining, high-grade dysplasia (HGD) ([4]; HGD, n = 22 specimens, peptide 1 μM, 10 min at RT, antibody 1:1000 overnight at 4°C): strong signal
fluorescence intensity / staining, squamous (SQ) ([4]; SQ, n = 28 specimens, peptide 1 μM, 10 min at RT, antibody 1:1000 overnight at 4°C): minimal fluorescence intensity
mean fluorescence intensity, gastric cancer versus normal, SRR*-Cy5.5 ([5]; P=7×10-17, paired two-sided t-test, 3 boxes of 30×30 μm2): significantly greater mean fluorescence intensity
staining, normal human stomach ([5]; normal stomach, comparison): minimal staining
apparent association time constant k ([6]; median fluorescence intensity by flow cytometry, first order kinetics, representative of 3 independent experiments): 0.16 min⁻¹
time scale for onset of binding ([6]; from k): ~ 6.2 min
